# Residues, ends and D or L forms follow the SMILES beside them. No end group written: not given here.
# How the values were obtained:
# GPR1 [1] = molecular target: T1, GPR1 (Homo sapiens, UniProt P46091); assay: β-arrestin recruitment (PathHunter); type: cell-based; conditions: receptor GPR1, mean, SEM and n (2-3); for EC50: read-out: b-arrestin recruitment assays (PathHunter) pEC50 (converted)
# T1 sequence (P46091 1-355): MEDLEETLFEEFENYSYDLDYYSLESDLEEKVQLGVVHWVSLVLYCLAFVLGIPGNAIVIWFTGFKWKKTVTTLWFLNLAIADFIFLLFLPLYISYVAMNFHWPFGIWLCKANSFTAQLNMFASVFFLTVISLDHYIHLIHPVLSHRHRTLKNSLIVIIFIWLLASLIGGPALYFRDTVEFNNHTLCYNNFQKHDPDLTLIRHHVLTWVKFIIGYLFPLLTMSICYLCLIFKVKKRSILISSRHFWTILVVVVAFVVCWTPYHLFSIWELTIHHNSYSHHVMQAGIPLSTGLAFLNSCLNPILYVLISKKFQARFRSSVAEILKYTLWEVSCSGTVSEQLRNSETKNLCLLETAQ
# Description: PathHunter eXpress Assays (DiscoverX) were performed in 384-well format according to the manufacturer’s recommendations. GPR1 cells were incubated with peptides for 90 min and luminescence measured using an EnSpire 2300 Multimode plate reader (PerkinElmer).
# GPR1 [2] = molecular target: T1, GPR1; assay: β-arrestin recruitment (Tango), validation; type: cell-based; set-up: host or cells: HTLA cells (HEK293-derived); conditions: receptor GPR1, mean, SEM and n (2-3); for EC50: read-out: b-arrestin recruitment assays (Tango) pEC50 (converted)
EC50 (GPR1 [1]) [nM],EC50 (GPR1 [2]) [nM],b-arrestin recruitment assays (PathHunter) Emax (fold change) (GPR1 [1]),b-arrestin recruitment assays (Tango) Emax (fold change) (GPR1 [2]),Compound
1170,2630,–,–,CC(C)C[C@H](NC(=O)[C@H](CCCNC(=N)N)NC(=O)[C@H](CC(=O)O)NC(=O)[C@H](CC(C)C)NC(=O)[C@@H]1CCCN1C(=O)[C@H](CO)NC(=O)CNC(=O)[C@H](Cc1ccccc1)NC(=O)CNC(=O)[C@H](CO)NC(=O)[C@H](Cc1ccccc1)NC(=O)[C@H](CO)NC(=O)[C@H](CCCNC(=N)N)NC(=O)[C@@H](N)CCCCN)C(=O)N[C@@H](CO)C(=O)N[C@@H](C)C(=O)NCC(=O)N[C@@H](CO)C(=O)N[C@H](C(=O)N[C@@H](CC(=O)O)C(=O)N[C@@H](Cc1c[nH]cn1)C(=O)N[C@@H](CCCCN)C(=O)NCC(=O)N[C@@H](CCCCN)C(=O)N[C@@H](CCC(N)=O)C(=O)O)C(C)C [Peptide 141.2] (H-KRSFSGFGSPLDRLSAGSVDHKGKQ-OH)
550,2630,–,–,CC(C)C[C@H](NC(=O)[C@H](CCCNC(=N)N)NC(=O)[C@H](CC(=O)O)NC(=O)[C@H](CC(C)C)NC(=O)[C@@H]1CCCN1C(=O)[C@H](CO)NC(=O)CNC(=O)[C@H](Cc1ccccc1)NC(=O)CNC(=O)[C@H](CO)NC(=O)[C@H](Cc1ccccc1)NC(=O)[C@H](CO)NC(=O)[C@H](CCCNC(=N)N)NC(=O)[C@@H](N)CCCCN)C(=O)N[C@@H](CO)C(=O)N[C@@H](C)C(=O)NCC(=O)N[C@@H](CO)C(=O)N[C@H](C(=O)N[C@@H](CC(=O)O)C(=O)N[C@@H](Cc1c[nH]cn1)C(=O)N[C@@H](CCCCN)C(=O)NCC(=O)N[C@@H](CCCCN)C(=O)N[C@@H](CCC(N)=O)C(=O)N[C@@H](CCCNC(=N)N)C(=O)N[C@@H](CCCCN)C(=O)N[C@H](C(=O)N[C@H](C(=O)N[C@@H](CC(=O)O)C(=O)N[C@@H](Cc1c[nH]cn1)C(=O)N1CCC[C@H]1C(=O)O)C(C)C)C(C)C)C(C)C [Peptide 141.3] (H-KRSFSGFGSPLDRLSAGSVDHKGKQRKVVDHP-OH)
20900,16200,6.2,13.6,CC(C)C[C@H](NC(=O)[C@H](CCCNC(=N)N)NC(=O)[C@H](CC(=O)O)NC(=O)[C@H](CC(C)C)NC(=O)[C@@H]1CCCN1C(=O)[C@H](CO)NC(=O)CNC(=O)[C@H](Cc1ccccc1)NC(=O)CNC(=O)[C@H](CO)NC(=O)[C@H](Cc1ccccc1)NC(=O)[C@@H](N)CO)C(=O)N[C@@H](CO)C(=O)N[C@@H](C)C(=O)NCC(=O)N[C@@H](CO)C(=O)N[C@H](C(=O)N[C@@H](CC(=O)O)C(=O)N[C@@H](Cc1c[nH]cn1)C(=O)N[C@@H](CCCCN)C(=O)NCC(=O)N[C@@H](CCCCN)C(=O)N[C@@H](CCC(N)=O)C(=O)O)C(C)C [Peptide 141.5] (H-SFSGFGSPLDRLSAGSVDHKGKQ-OH)
3160,16600,–,–,CC(C)C[C@H](NC(=O)[C@H](CCCNC(=N)N)NC(=O)[C@H](CC(=O)O)NC(=O)[C@H](CC(C)C)NC(=O)[C@@H]1CCCN1C(=O)[C@H](CO)NC(=O)CNC(=O)[C@H](Cc1ccccc1)NC(=O)CNC(=O)[C@H](CO)NC(=O)[C@H](Cc1ccccc1)NC(=O)[C@@H](N)CO)C(=O)N[C@@H](CO)C(=O)N[C@@H](C)C(=O)NCC(=O)N[C@@H](CO)C(=O)N[C@H](C(=O)N[C@@H](CC(=O)O)C(=O)N[C@@H](Cc1c[nH]cn1)C(=O)N[C@@H](CCCCN)C(=O)NCC(=O)N[C@@H](CCCCN)C(=O)N[C@@H](CCC(N)=O)C(=O)N[C@@H](CCCNC(=N)N)C(=O)N[C@@H](CCCCN)C(=O)N[C@H](C(=O)N[C@H](C(=O)N[C@@H](CC(=O)O)C(=O)N[C@@H](Cc1c[nH]cn1)C(=O)N1CCC[C@H]1C(=O)O)C(C)C)C(C)C)C(C)C [Peptide 141.6] (H-SFSGFGSPLDRLSAGSVDHKGKQRKVVDHP-OH)
1.45,8510,–,–,CSCC[C@H](NC(=O)[C@H](Cc1ccc(O)cc1)NC(=O)[C@@H](N)CC(=O)O)C(=O)NCC(=O)N[C@@H](Cc1c[nH]c2ccccc12)C(=O)N[C@@H](CCSC)C(=O)N[C@@H](CC(=O)O)C(=O)N[C@@H](Cc1ccccc1)C(N)=O [Peptide 194.1]
0.049,0.00191,–,–,C[C@H](NC(=O)[C@@H](N)CCCCN)C(=O)N1CCC[C@H]1C(=O)N[C@@H](CO)C(N)=O [Peptide 194.3] (H-KAPS-NH2)
0.224,93.3,–,–,CC[C@H](C)[C@H](NC(=O)[C@H](CCCNC(=N)N)NC(=O)[C@H](Cc1c[nH]cn1)NC(=O)[C@H](CO)NC(=O)[C@@H]1CCCN1C(=O)[C@H](CC(=O)O)NC(=O)[C@H](CC(C)C)NC(=O)[C@H](CC(N)=O)NC(=O)[C@H](CCC(N)=O)NC(=O)[C@H](CC(C)C)NC(=O)[C@H](CC(N)=O)NC(=O)[C@H](CCCCN)NC(=O)[C@@H](NC(=O)[C@@H](NC(=O)[C@H](CO)NC(=O)[C@H](CCSC)NC(=O)[C@H](CCCNC(=N)N)NC(=O)CNC(=O)[C@H](CO)NC(=O)[C@@H]1CCCN1C(=O)[C@H](C)NC(=O)[C@@H](N)CCCCN)[C@@H](C)CC)C(C)C)C(=O)N[C@@H](CO)C(=O)N[C@@H](CC(=O)O)C(=O)N[C@@H](CCCNC(=N)N)C(=O)N[C@@H](CC(=O)O)C(=O)N[C@@H](Cc1ccc(O)cc1)C(=O)N[C@@H](CCSC)C(=O)NCC(=O)O [Peptide 194.4] (H-KAPSGRMSIVKNLQNLDPSHRISDRDYMG-OH)
0.135,22.9,–,–,CC[C@H](C)[C@H](NC(=O)[C@H](CCCNC(=N)N)NC(=O)[C@H](Cc1c[nH]cn1)NC(=O)[C@H](CO)NC(=O)[C@@H]1CCCN1C(=O)[C@H](CC(=O)O)NC(=O)[C@H](CC(C)C)NC(=O)[C@H](CC(N)=O)NC(=O)[C@H](CCC(N)=O)NC(=O)[C@H](CC(C)C)NC(=O)[C@H](CC(N)=O)NC(=O)[C@H](CCCCN)NC(=O)[C@@H](NC(=O)[C@@H](NC(=O)[C@H](CO)NC(=O)[C@H](CCSC)NC(=O)[C@H](CCCNC(=N)N)NC(=O)CNC(=O)[C@H](CO)NC(=O)[C@@H]1CCCN1C(=O)[C@H](C)NC(=O)[C@@H](N)CCCCN)[C@@H](C)CC)C(C)C)C(=O)N[C@@H](CO)C(=O)N[C@@H](CC(=O)O)C(=O)N[C@@H](CCCNC(=N)N)C(=O)O [Peptide 194.5] (H-KAPSGRMSIVKNLQNLDPSHRISDR-OH)
28200,75.9,4.0,2.0,KAPSGRMSIVKNLQNLDPSHRISDRDYMGWMDFGRRSAEEYEYPS [Peptide 194.6]
39.8,10200,–,–,KRSFSGFGSPLDRLSAGSVDHKGKQRKVVDHPKRRFGIPMDRI [Peptide 141.4]
575,26900,–,–,SFSGFGSPLDRLSAGSVDHKGKQRKVVDHPKRRFGIPMDRI-NH2 [Peptide 141.7]

# From publication PMC6838683, “Discovery of Human Signaling Systems: Pairing Peptides to G Protein-Coupled Receptors” (Cell, 2019)
